Measured values: ChEMBL document CHEMBL1201862, “PubChem BioAssay data set” (2004)
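Following 48 hours of exposure in 96-well plates, responses at five concentrations were used to interpolate endpoints linearly. GI50 marks 50% less growth.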 Calls of active or inactive are those of the source. Rule as the data show it: active = GI50 up to about 1.1 µM and inactive = higher.

How the values were obtained:
Assay in all cases: NCI-60 cell line screen, 48 h
HT-29 = tested on: HT-29
BT-549 = tested on: BT-549
Malme-3M = tested on: Malme-3M
NCI-H226 = tested on: NCI-H226
NCI-H460 = tested on: NCI-H460
Hs-578T = tested on: Hs-578T
MOLT-4 = tested on: MOLT-4
786-0 = tested on: 786-0
SF-539 = tested on: SF-539
DU-145 = tested on: DU-145
SF-295 = tested on: SF-295
MDA-MB-435 = tested on: MDA-MB-435
SNB-75 = tested on: SNB-75
U-251 = tested on: U-251
SNB-19 = tested on: SNB-19
HCT-116 = tested on: HCT-116
CCRF-CEM = tested on: CCRF-CEM
UACC-62 = tested on: UACC-62
PC-3 = tested on: PC-3
T47D = tested on: T47D
A549 = tested on: A549
ACHN = tested on: ACHN
SN12C = tested on: SN12C
HCC 2998 = tested on: HCC 2998
NCI-H522 = tested on: NCI-H522
KM12 = tested on: KM12
TK-10 = tested on: TK-10
HOP-62 = tested on: HOP-62
NCI-H23 = tested on: NCI-H23
OVCAR-4 = tested on: OVCAR-4
MCF7 = tested on: MCF7
UACC-257 = tested on: UACC-257
MDA-N = tested on: MDA-N
SW-620 = tested on: SW-620
SK-MEL-5 = tested on: SK-MEL-5
OVCAR-8 = tested on: OVCAR-8
OVCAR-3 = tested on: OVCAR-3
RXF 393 = tested on: RXF 393
EKVX = tested on: EKVX
HL-60 = tested on: HL-60
SK-MEL-28 = tested on: SK-MEL-28
SF-268 = tested on: SF-268
IGROV-1 = tested on: IGROV-1
OVCAR-5 = tested on: OVCAR-5
RPMI-8226 = tested on: RPMI-8226
NCI/ADR-RES = tested on: NCI/ADR-RES
M14 = tested on: M14
COLO 205 = tested on: COLO 205
SR = tested on: SR
HCT-15 = tested on: HCT-15
HOP-92 = tested on: HOP-92
K562 = tested on: K562
MDA-MB-231 = tested on: MDA-MB-231

With `O=C(NC1=C(Cl)C(=O)c2ccccc2C1=O)c1ccccc1` the GI50 (HT-29) was 29.3 µM (inactive), the GI50 (BT-549) was 19.9 µM (inactive) and the GI50 (Malme-3M) was 16.9 µM (inactive). For the same compound, the GI50 (NCI-H226) was 24.5 µM (inactive), the GI50 (NCI-H460) was 40.3 µM (inactive) and the GI50 (Hs-578T) was 69 µM (inactive). For the same compound, the GI50 (MOLT-4) was 20.1 µM (inactive), the GI50 (786-0) was 45.4 µM (inactive) and the GI50 (SF-539) was 50.6 µM (inactive). For the same compound, the GI50 (DU-145) was 55.1 µM (inactive), the GI50 (SF-295) was 36 µM (inactive) and the GI50 (MDA-MB-435) was 18.9 µM (inactive). The GI50 (SNB-75) was 65 µM (inactive), the GI50 (U-251) was 27.8 µM (inactive) and the GI50 (SNB-19) was 54.2 µM (inactive). The GI50 (HCT-116) was 17.3 µM (inactive), the GI50 (CCRF-CEM) was 30.9 µM (inactive) and the GI50 (UACC-62) was 24.1 µM (inactive). The GI50 (PC-3) was 24.9 µM (inactive), the GI50 (T47D) was 22.1 µM (inactive) and the GI50 (A549) was 52.5 µM (inactive). The GI50 (ACHN) was 20.8 µM (inactive), the GI50 (SN12C) was 38.1 µM (inactive) and the GI50 (HCC 2998) was 46.5 µM (inactive). For the same compound, the GI50 (NCI-H522) was 23.9 µM (inactive), the GI50 (KM12) was 32.1 µM (inactive) and the GI50 (TK-10) was 23 µM (inactive). For the same compound, the GI50 (HOP-62) was 85.3 µM (inactive), the GI50 (NCI-H23) was 23.8 µM (inactive) and the GI50 (OVCAR-4) was 45.1 µM (inactive). For the same compound, the GI50 (MCF7) was 19.2 µM (inactive), the GI50 (UACC-257) was > 10 µM (inactive) and the GI50 (MDA-N) was 5.04 µM (inactive). For the same compound, the GI50 (SW-620) was 17.3 µM (inactive), the GI50 (SK-MEL-5) was 27.5 µM (inactive) and the GI50 (OVCAR-8) was 43.2 µM (inactive). The GI50 (OVCAR-3) was 19.1 µM (inactive), the GI50 (RXF 393) was 18.9 µM (inactive) and the GI50 (EKVX) was > 100 µM (inactive). The GI50 (HL-60) was 34.8 µM (inactive), the GI50 (SK-MEL-28) was 44.8 µM (inactive) and the GI50 (SF-268) was 64.1 µM (inactive). For the same compound, the GI50 (IGROV-1) was 21.8 µM (inactive), the GI50 (OVCAR-5) was 47.1 µM (inactive) and the GI50 (RPMI-8226) was 44.4 µM (inactive). The GI50 (NCI/ADR-RES) was 18.5 µM (inactive), the GI50 (M14) was 50.8 µM (inactive) and the GI50 (COLO 205) was 15.5 µM (inactive). For the same compound, the GI50 (SR) was 38.4 µM (inactive), the GI50 (HCT-15) was 25.2 µM and the GI50 (HOP-92) was 24.9 µM (inactive). For the same compound, the GI50 (K562) was 21.8 µM (inactive) and the GI50 (MDA-MB-231) was 32.9 µM (inactive).
